Source: paper PMC3070735, “Uremic Toxins Inhibit Transport by Breast Cancer Resistance Protein and Multidrug Resistance Protein 4 at Clinically Relevant Concentrations” (PLoS ONE, 2011)
Counter-ions that a name gives are not always drawn. Like-named read-outs stand apart in the source and are kept apart here.

Molecular target: T1, MRP4 (Homo sapiens, UniProt O15439)
T1 sequence (O15439 1-1325): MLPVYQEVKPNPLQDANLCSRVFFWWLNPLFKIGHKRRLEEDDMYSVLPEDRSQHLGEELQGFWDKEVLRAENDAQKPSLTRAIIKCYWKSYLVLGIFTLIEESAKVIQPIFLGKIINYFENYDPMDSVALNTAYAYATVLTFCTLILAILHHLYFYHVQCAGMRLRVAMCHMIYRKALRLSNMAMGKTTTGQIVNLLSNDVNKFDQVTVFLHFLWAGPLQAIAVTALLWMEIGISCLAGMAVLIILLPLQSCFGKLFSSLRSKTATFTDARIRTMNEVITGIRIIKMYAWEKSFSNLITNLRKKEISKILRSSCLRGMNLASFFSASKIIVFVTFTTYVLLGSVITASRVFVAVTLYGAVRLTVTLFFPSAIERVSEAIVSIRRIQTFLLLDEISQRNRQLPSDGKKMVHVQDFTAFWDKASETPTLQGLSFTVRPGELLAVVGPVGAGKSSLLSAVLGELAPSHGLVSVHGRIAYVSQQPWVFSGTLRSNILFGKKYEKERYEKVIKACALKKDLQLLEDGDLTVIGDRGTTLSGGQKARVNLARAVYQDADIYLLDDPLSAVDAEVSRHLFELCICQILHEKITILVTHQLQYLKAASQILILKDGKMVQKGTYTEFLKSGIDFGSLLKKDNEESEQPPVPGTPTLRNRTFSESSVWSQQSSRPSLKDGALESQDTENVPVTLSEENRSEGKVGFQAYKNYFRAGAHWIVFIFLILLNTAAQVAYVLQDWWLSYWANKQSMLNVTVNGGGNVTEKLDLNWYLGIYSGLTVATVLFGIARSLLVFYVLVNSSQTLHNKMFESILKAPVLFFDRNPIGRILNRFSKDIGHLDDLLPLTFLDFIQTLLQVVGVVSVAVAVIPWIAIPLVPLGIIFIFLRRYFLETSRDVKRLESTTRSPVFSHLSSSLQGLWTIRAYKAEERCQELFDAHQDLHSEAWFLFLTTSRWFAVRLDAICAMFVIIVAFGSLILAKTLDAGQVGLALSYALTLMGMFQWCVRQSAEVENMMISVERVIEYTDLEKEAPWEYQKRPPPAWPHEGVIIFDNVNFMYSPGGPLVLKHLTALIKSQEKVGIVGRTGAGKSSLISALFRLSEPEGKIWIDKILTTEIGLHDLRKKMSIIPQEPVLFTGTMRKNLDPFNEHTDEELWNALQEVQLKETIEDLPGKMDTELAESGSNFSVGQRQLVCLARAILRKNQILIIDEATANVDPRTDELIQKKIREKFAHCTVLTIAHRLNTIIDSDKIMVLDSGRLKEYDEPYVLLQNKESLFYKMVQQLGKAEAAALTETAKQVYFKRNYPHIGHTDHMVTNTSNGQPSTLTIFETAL
Assay: Membrane vesicle transport inhibition assay: MRP4-mediated [3H]-MTX uptake
Conditions: for Mode of inhibition of MRP4-mediated transport: Dixon plot, three [3H]-MTX concentrations; for IC20 at 10 min: human; for Effect on transport mediated by MRP4 / Decrease of MRP4-mediated transport compared to control: [3H]-MTX uptake; for Effect on transport mediated by MRP4: result in words; for Decrease of MRP4-mediated transport compared to control: toxin 1 mM
Description: Human embryonic kidney (HEK293; purchased at American Type Culture Collection, Manassas, VA) cells were cultured in Dulbecco's modified Eagle's medium (Invitrogen life sciences, Breda, the Netherlands) containing 10% (v/v) fetal calf serum (MP Biomedicals, Uden, the Netherlands) at 37°C in a 5% (v/v) CO2 atmosphere. To functionally overexpress MRP4 and BCRP, HEK293 cells were transduced with baculoviruses of human MRP4, BCRP or enhanced yellow fluorescent protein (EYFP), generated via the Bac-to-Bac system (Invitrogen) as previously described. To transduce HEK293 cells, they were cultured in 500 cm^2 flasks until 70% confluence. Subsequently, medium was removed and 10 ml of virus and 25 ml of medium were added and incubated for 30 min at 37°C. Next, 50 ml of medium was added and after 2 h of transduction 5 mM sodium butyrate was added.
Three days after transduction, cells were harvested and pelleted by centrifugation (30 min at 4,000 x g). Afterwards, the cells were resuspended in ice-cold hypotonic TS buffer (0.5 mM sodium phosphate, 0.1 mM EDTA, pH 7.0) containing protease inhibitors (100 µM phenylmethylsulfonyl fluoride, 5 µg/ml aprotinin, 5 µg/ml leupeptin, 1 µg/ml pepstatin and 1 µg/ml E-64) and shaken for 30 min at 4°C. Cells were then centrifuged at 100,000 x g for 30 min at 4°C. […] Afterwards, supernatant was centrifuged at 100,000 x g for 1 h at 4°C. […] The protein content of samples was determined using the Bio-Rad protein assay (Veenendaal, the Netherlands), according to manufacturers recommendations. Vesicles were frozen in liquid nitrogen and stored at −80°C until use. The orientation of the membrane vesicles was not determined, since ATP-dependent uptake occurs only in inside-out vesicles.
A rapid filtration technique was used to study the uptake of [^3H]-MTX and [^3H]-E1S into MRP4 or BCRP membrane vesicles, as previously described. In short, 25 µl of TS buffer containing 4 mM ATP, 10 mM MgCl2 and radiolabeled substrate was added to 5 µl of the membrane vesicles (1.5 mg/ml). The transport assay was performed in the absence or presence of various concentrations of uremic toxins to evaluate the inhibitory effects of these compounds on MRP4-mediated [^3H]-MTX uptake and BCRP-mediated [^3H]-E1S uptake. […] Uptake was stopped by placing the samples on ice and the addition of 150 µl ice cold TS buffer. Subsequently, the samples were transferred to a 96 well filter plate (Millipore, Etten-leur, the Netherlands) pre-incubated with TS buffer and filtered using a Multiscreen HTS-Vacuum Manifold filtration device (Millipore). Afterwards, 2 ml of scintillation liquid was added to each filter and radioactivity was determined using liquid scintillation counting. As negative controls ATP was substituted for AMP and EYFP-membrane vesicles were used. Each experiment was performed in triplicates.
Differences between groups were considered to be statistically significant when p<0.05. The mean IC50 and IC20 values were calculated from the inhibition curves used for the Dixon analysis and to determine the inhibition constant (Ki) from the Dixon plots. Transport inhibition studies were performed in triplicate and repeated at least three times.

[1] = membrane vesicles from HEK293 cells overexpressing MRP4, pH 7, probe [3H]-methotrexate ([3H]-MTX)
[2] = IC50 (concentration inhibiting 50% of transport by MRP4), MRP4-mediated [3H]-MTX uptake
[3] = IC50, [3H]-MTX uptake into MRP4 membrane vesicles, 10 min, 37°C, mean ± SEM of three experiments

`O=S(=O)(O)Oc1c[nH]c2ccccc12` [indoxyl sulfate] was tested, and the IC50 was 1.75 ± 0.11 mM, the Ki was 1 ± 0.09 mM and the “Mode of inhibition of MRP4-mediated transport” value was “non-competitive”. For the same compound, the IC20 at 10 min [1] was 0.53 ± 0.07 mM.
`NCCCCN` [putrescine] was tested, and the “Effect on transport mediated by MRP4” value was “did not alter transport” and the “Decrease of MRP4-mediated transport compared to control” value (from here on “Decrease of MRP4-mediated transport”) was ≤ 10%.
`O=C(O)CNC(=O)c1ccccc1` [hippuric acid] was tested, and the Ki was 2.5 ± 0.05 mM, the “Mode of inhibition of MRP4-mediated transport” value was “non-competitive” and the IC50 [2] was 2.5 mM. It also gave an IC50 [3] of 0.99 ± 0.18 mM and an IC20 at 10 min [1] of 0.35 ± 0.02 mM.
`O=C(O)c1cc(=O)c2ccccc2[nH]1` [kynurenic acid] showed an IC50 of 0.008 ± 0.001 mM, a Ki of 0.025 ± 0.002 mM and an IC20 at 10 min [1] of 0.0015 ± 0.0003 mM.
`O=C(O)C(=O)O` [oxalate] was tested, and the “Effect on transport mediated by MRP4” value was “did not alter transport” and the “Decrease of MRP4-mediated transport” value was ≤ 10%.
`Cc1ccc(O)cc1` [p-cresol] was tested, and the “Effect on transport mediated by MRP4” value was “did not alter transport” and the “Decrease of MRP4-mediated transport” value was ≤ 10%.
For `Cc1ccc(S(=O)(=O)O)cc1` [p-toluenesulfonic acid, reference compound], the “Effect on transport mediated by MRP4” value was “did not alter transport” and the “Decrease of MRP4-mediated transport” value was ≤ 10%.
In the case of `O=C(O)Cc1ccccc1` [phenylacetic acid], the IC50 [2] is reported as 7 mM, the IC50 [3] is reported as 7.1 ± 1.6 mM and the IC20 at 10 min (pH 7) is reported as 1.6 ± 0.17 mM.
With `O=C(O)Cc1c[nH]c2ccccc12` [indole-3-acetic acid] the Ki was 2 ± 0.07 mM, the “Mode of inhibition of MRP4-mediated transport” value was “non-competitive” and the IC50 [3] was 1.795 ± 0.008 mM. It also gave an IC20 at 10 min [1] of 0.57 ± 0.03 mM.
`O=C(O)c1cccnc1C(=O)O` [quinolinic acid] was tested, and the “Effect on transport mediated by MRP4” value was “did not alter transport” and the “Decrease of MRP4-mediated transport” value was ≤ 10%.
